This passage reports GI50 and TGI results from PubChem BioAssay (NCI).

Assay in all cases: growth of human tumour cells (NCI), 48 h
The test system of assay [1] is LOX IMVI melanoma.
Assay [2] deals with SF-539 CNS.
Assay [3] deals with RPMI-8226 leukemia.
Assay [4] relates to CCRF-CEM leukemia.
Assay [5] has as its system SK-MEL-28 melanoma.
Assay [6] relates to M14 melanoma.
Assay [7] has as its system RXF 393 renal.
Assay [8] has as its system ACHN renal.
Assay [9] has as its system T-47D breast.
The subject of assay [10] is SK-OV-3 ovarian.

SMILES strings stand for the structures. Where “and” joins values, the source holds several entries; their conditions need not be identical. Identical values can stand only once.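 Briefly, cells in 96-well plates were exposed to five compound concentrations for 48 h, and endpoints were estimated by linear interpolation. GI50 marks 50% less growth. TGI: total growth inhibition.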

For the compound `Cn1cc(C2=C(c3cc[nH]c3)C(=O)NC2=O)c2ccccc21`, the GI50 in assay [1], in assay [2], in assay [3], in assay [4], in assay [5] and in assay [6] was > 25 µM throughout. Further, the GI50 in assay [7] was 18.3 µM; in assay [8], > 25 µM; in assay [9] it was > 17.5 µM; in assay [10], > 23.3 µM. Further, the TGI in [1], in assay [2], in [3], in [4], in [5] and in assay [6] was > 25 µM in each case. Moreover, the TGI in [7], in assay [8], in [9] and in [10] was > 25 µM in each case.

Regarding `COc1cccc(N2CCN(c3ncnc4cc[nH]c34)CC2)c1`, the GI50 was 13.9 µM in assay [1]; 20.8 µM in assay [2]; 2.78 µM in [3]; 9.61 µM in assay [4]; 10.7 µM in assay [5]; 3.76 µM in assay [6]. Moreover, the GI50 in [7] was 33.6 µM; in [8], 19 µM; in assay [9] it was 2.92 µM; in assay [10], 51.5 µM. In addition, the TGI in assay [1] was > 100 µM; in [2], > 100 µM; in assay [3], 94.8 µM; in [4], > 100 µM; in [5] it was 62.3 µM; in assay [6] it was 26.3 µM. The TGI in assay [7] was > 100 µM; in [8], > 100 µM; in [9], 44.1 µM; in [10], > 100 µM.

`O=c1cc(-c2ccccc2)oc2cc(OCCCCCN3CCOCC3)cc(O)c12`: the GI50 is > 100 µM in assay [1]; > 100 µM in assay [2]; 62.3 µM in assay [3]; 94.5 µM in [4]; > 100 µM in assay [5]; > 100 µM in [6]. The GI50 is 16.8 µM in assay [7], > 100 µM in assay [8], 42.5 µM in assay [9] and 16.4 µM in assay [10]. Further, the TGI in [1], in assay [2], in assay [3], in [4], in [5] and in assay [6] was > 100 µM in each case. The TGI in assay [7] was 46.1 µM; in [8], > 100 µM; in assay [9] it was > 100 µM; in [10], 44.1 µM.

On to `COC(=O)c1c2c(c(C)[n+]([O-])c1C)C(=O)C(NCc1ccc(F)cc1)=CC2=O`, for which the GI50 in [1] was 1.94 µM; in [2], 1.72 µM; in assay [3] it was 2 µM; in [4], 2.34 µM; in assay [5], 3.2 µM; in assay [6] it was 1.21 µM. Besides, the GI50 in assay [7] is 1.56 µM; in assay [8] it was 1.73 µM; in assay [9] it was 1.72 µM; in [10] it was 2.92 µM. Also, the TGI in assay [1] was found to be 6.32 µM; in assay [2], 3.15 µM; in assay [3] it was 6.82 µM; in assay [4], 8.36 µM; in [5], 15.6 µM; in assay [6], 2.69 µM. In addition, the TGI in assay [7] was 3.51 µM; in [8] it was 4.04 µM; in assay [9] it was 4.23 µM; in assay [10], 9.11 µM.

For `CC(=O)O[C@@H]1C2=C(C)C3(CC3)[C@@](C)(O)C(=O)C2=C[C@@]1(C)CO`, the GI50 in [1] is 1.04 µM; in [2], 1.02 µM; in [3] it was 0.372 µM; in assay [4], 0.475 µM; in assay [5], 1.98 µM; in assay [6] it was 0.34 µM. Moreover, the GI50 is 0.24 µM in assay [7], 0.484 µM in assay [8], 0.635 µM in assay [9] and 1.55 µM in [10]. Besides, the TGI in assay [1] was 4.44 µM; in assay [2] it was 3.38 µM; in [3], 3.14 µM; in assay [4], > 22.5 µM; in assay [5] it was 4.52 µM; in [6], 1.61 µM. For the same compound, the TGI in assay [7] turned out to be 0.658 µM; in assay [8], 2.33 µM; in assay [9], 7.03 µM; in assay [10], 8.01 µM.

Take `C=CCC(N[C@H](CO)c1ccccc1)c1ccccn1` (stereo partly specified): the GI50 in [1], in assay [2], in assay [3], in assay [4], in [5] and in assay [6] was > 100 µM in each case. Also, the GI50 in assay [7], in assay [8], in [9] and in assay [10] was > 100 µM each time. Moreover, the TGI in assay [1], in assay [2], in [3], in assay [4], in assay [5] and in assay [6] was > 100 µM throughout. In addition, the TGI in assay [7], in assay [8], in [9] and in [10] was > 100 µM each time.

For the compound `Oc1ccc(Cl)cc1Sc1cc(Cl)ccc1O`, the GI50 was 2.63 µM in assay [1]; 3.14 µM in [2]; 1.97 µM in assay [3]; 2.59 µM in assay [4]; 4.67 µM in [5]; 3.83 µM in assay [6]. The GI50 in assay [7] was 4.88 µM; in [8] it was 2.72 µM; in [9] it was 2.76 µM; in assay [10] it was 4.86 µM. The TGI was 24 µM and 8.42 µM in assay [1]; 37.2 µM and 11.2 µM in assay [2]; 55 µM and 12.8 µM in [4]; 26.3 µM and 15.3 µM in assay [5]; 26 µM and 12.7 µM in assay [6]; 31.1 µM and 17.1 µM in assay [7]. In addition, the TGI was 23.1 µM and 8.27 µM in [8]; 20.8 µM and 9.93 µM in assay [9]; 43.5 µM and 19.1 µM in assay [10].

With `NC(Cc1cccnn1)C(=O)O` (stereo unspecified), the TGI in assay [1], in assay [2], in assay [3], in [4], in assay [5] and in [6] was > 100 µM each time. The TGI in assay [7], in [8], in assay [9] and in assay [10] was > 100 µM each time.

`C#CCOc1cccc(Nc2ncnc3cc(NC(=O)C=C)ccc23)c1`: the GI50 is 3.73 µM in assay [1]; 2.89 µM in [2]; 4.56 µM in assay [3]; 4.08 µM in assay [4]; 23 µM in assay [5]; 6.46 µM in assay [6]. The GI50 in [7] was 2.44 µM; in assay [8], 4.74 µM; in assay [9], 3.98 µM; in [10] it was 7.88 µM. The TGI was 17.3 µM in assay [1]; 14 µM in assay [2]; 38.8 µM in assay [3]; > 100 µM in [4]; > 100 µM in assay [5]; > 100 µM in assay [6]. For the same compound, the TGI is 13.3 µM in [7], > 100 µM in assay [8], > 100 µM in assay [9] and > 100 µM in assay [10].

In the case of `CC(C)(C)C(=O)c1c(C(F)(F)F)n([O-])c2cc(Cl)c(Cl)cc2[n+]1=O`, the GI50 in [1] is 1.04 µM; in assay [2], 0.563 µM; in assay [3], 0.131 µM; in assay [4], 0.619 µM; in assay [5] it was 0.618 µM; in assay [6], 0.998 µM. Moreover, the GI50 in assay [7] was 0.438 µM; in assay [8] it was 0.389 µM; in assay [9] it was 0.613 µM; in [10], 0.815 µM. Besides, the TGI was found to be 1.04 µM in assay [2]; 0.281 µM in assay [3]; 1.19 µM in assay [4]; 1.6 µM in assay [5]; 2.57 µM in assay [6]; 0.909 µM in assay [7]. Also, the TGI in assay [8] is 0.782 µM; in assay [9], 1.29 µM; in assay [10], 2.07 µM.

For `C=C1C(=O)O[C@@H]2CC(CO)=C([C@@H](C)CCCO)[C@@H](OC(=O)/C(C)=C\C)[C@H]12`, the TGI in [1] is 24.3 µM; in assay [2], > 71.3 µM; in assay [3] it was 31 µM; in assay [4], 10 µM; in assay [5] it was 29.3 µM; in [6] it was > 81.4 µM. In addition, the TGI is 37.7 µM in [7], 39.8 µM in assay [8], 49.7 µM in [9] and > 100 µM in [10].

As to `COc1ccc(/C=C2\COc3ccc(O)c(O)c3C2=O)cc1OC`, the GI50 in assay [1] is 1.12 µM; in assay [2] it was 1.57 µM; in [3] it was 0.336 µM; in assay [4], 0.377 µM; in assay [5] it was 1.8 µM; in assay [6], 1.43 µM. Besides, the GI50 is 1.44 µM in assay [7], 1.32 µM in assay [8], 1.54 µM in [9] and 3.83 µM in assay [10]. The TGI in assay [1] amounted to 2.54 µM; in [2], 3.03 µM; in [3], 1.51 µM; in assay [4], 12.1 µM; in [5], 3.69 µM; in assay [6], 3.31 µM. Also, the TGI was 2.91 µM in assay [7], 2.75 µM in assay [8], 9.6 µM in assay [9] and > 100 µM in assay [10].

As for `CC(C)c1[nH]nc2c(NCc3ccc(-c4ccccn4)cc3)nc(SCCN(C)C)nc12`, the GI50 in assay [1] is 0.123 µM; in assay [2], 0.0745 µM; in assay [3] it was 0.0195 µM; in [4], 0.0246 µM; in assay [5] it was 0.0226 µM; in [6], < 0.0133 µM. In addition, the GI50 in [7] was < 0.0136 µM; in [8], 0.0864 µM; in assay [9], 0.0319 µM; in assay [10] it was 0.106 µM. Moreover, the TGI in [1] worked out at 11.1 µM; in assay [2] it was 0.242 µM; in assay [3], 0.101 µM; in [4], 4.87 µM; in [5], 0.21 µM; in assay [6], 0.122 µM. In addition, the TGI was determined as 0.0354 µM in [7], 4.96 µM in assay [8], 2.69 µM in assay [9] and 11.5 µM in [10].

As for `O=C(NCCCl)Nc1ccccc1`, the TGI in assay [1], in assay [3], in assay [4], in assay [5], in [7] and in [8] was > 100 µM each time. Moreover, the TGI in assay [9] and in [10] was > 100 µM in each case.

For the compound `OC(CN1CCCC2CCCCC21)c1cc2ccccc2c2ccccc12` (stereo unspecified), the GI50 in assay [1] was 1.53 µM; in [2], 1.99 µM; in assay [3], 1.6 µM; in assay [4], 1.87 µM; in assay [5] it was 2.06 µM; in [6] it was 1.52 µM. Further, the GI50 is 1.71 µM in [7], 3 µM in assay [8], 2.16 µM in [9] and 3.16 µM in assay [10]. Further, the TGI is 2.93 µM in [1]; 4.74 µM in assay [2]; 3.87 µM in assay [3]; 5.2 µM in [4]; 4.36 µM in assay [5]; 2.86 µM in assay [6]. Besides, the TGI is 3.59 µM in [7], 10.1 µM in assay [8], 5.71 µM in assay [9] and 10.8 µM in assay [10].

For `Cc1cc2c3c([n+](C)c4ccc(F)cc4c3c1)-c1cc(F)ccc1N2C`, the GI50 is 20.7 µM in assay [1]; 3.28 µM in [2]; 5.13 µM in [3]; 7.17 µM in assay [4]; 9.77 µM in assay [5]; 23.4 µM in assay [6]. The GI50 in assay [7] is > 100 µM; in [8] it was 39.1 µM; in [9], 2.85 µM; in [10], 64.7 µM. In addition, the TGI was 68.6 µM in [1]; 20.6 µM in assay [2]; 36.4 µM in assay [3]; > 100 µM in assay [4]; 34.9 µM in assay [5]; 62.9 µM in assay [6]. Also, the TGI is > 100 µM in assay [7], > 100 µM in assay [8], 84 µM in assay [9] and > 100 µM in assay [10].
